Experimental data as given in ChEMBL document CHEMBL1127004, “Structure-based design and pharmacological properties of potent selective and systemically active CCK-B peptidomimetics” (Bioorg Med Chem Lett, 1993).
Non-standard residues stand in square brackets, D forms with d. Residues, ends and D or L forms follow the SMILES beside them. *: point of attachment. 1Nal = N[C@@H](Cc1cccc2ccccc12)C(=O)O; Phg = N[C@H](C(=O)O)c1ccccc1; Boc = CC(C)(C)OC(=O)*

biological target: T1, Cholecystokinin receptor type A (Cavia porcellus, UniProt Q63931); experiment: Tested for the inhibition of [3H]pCCK-8 binding to Cholecystokinin type A receptor in pancreatic membranes of guinea-pig; format: cell membranes
T1 sequence (Q63931 whole entry): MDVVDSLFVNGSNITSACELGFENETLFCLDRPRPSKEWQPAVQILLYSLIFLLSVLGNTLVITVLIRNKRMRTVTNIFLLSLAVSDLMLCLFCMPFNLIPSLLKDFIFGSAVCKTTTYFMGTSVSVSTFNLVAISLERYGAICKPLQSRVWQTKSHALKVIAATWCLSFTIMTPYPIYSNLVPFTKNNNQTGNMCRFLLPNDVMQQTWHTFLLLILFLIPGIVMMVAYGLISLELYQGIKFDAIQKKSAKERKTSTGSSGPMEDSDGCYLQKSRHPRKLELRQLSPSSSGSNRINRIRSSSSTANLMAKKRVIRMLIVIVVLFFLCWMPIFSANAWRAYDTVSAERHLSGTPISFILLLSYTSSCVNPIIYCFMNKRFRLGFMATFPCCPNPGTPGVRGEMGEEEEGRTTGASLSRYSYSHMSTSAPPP

Ki [nM] | Structure (SMILES)
1100 | CCCC[C@@H](NC(=O)CC(=O)N[C@@H](Cc1c[nH]c2ccccc12)C(=O)N(C)[C@@H](CCCC)C(=O)N[C@@H](CC(=O)O)C(=O)N[C@@H](Cc1ccccc1)C(N)=O)NC(=O)[C@H](Cc1ccc(CS(=O)(=O)O)cc1)NC(=O)OC(C)(C)C
2400 | CC(C)(C)OC(=O)N[C@@H](Cc1c[nH]c2ccccc12)C(=O)N[C@@H](Cc1ccccc1)C(=O)N[C@@H](CC(=O)O)C(=O)N[C@@H](Cc1cccc2ccccc12)C(N)=O (Boc-WFD[1Nal]-NH2)
1100 | CC(C)(C)OC(=O)N[C@@H](Cc1c[nH]c2ccccc12)C(=O)N[C@H](C(=O)N[C@@H](CC(=O)O)C(=O)N[C@@H](Cc1cccc2ccccc12)C(N)=O)c1ccccc1 (Boc-W[Phg]D[1Nal]-NH2)
1000 | CN(C)C(=O)[C@H](Cc1cccc2ccccc12)NC(=O)[C@H](CC(=O)O)NC(=O)[C@@H](NC(=O)[C@H](Cc1c[nH]c2ccccc12)NC(=O)OC(C)(C)C)c1ccccc1 (Boc-W[Phg]D[1Nal]-NMe2)
